One data set relates to ischemia. To be noted: administered prior to and throughout ischemia; cited from earlier work.
In data set [1] the test system is transient middle cerebral artery occlusion (MCAO) in C57Bl6J mice. The data set can be described thus: Transient middle cerebral artery occlusion (MCAO) model, infarct volume and cerebral blood flow. The data set is classed as in vivo. The conditions noted are these: given i.v. for 20 minutes starting just prior to reperfusion; 45 min ischemia, 2 h reperfusion; vs saline/vehicle control. An excerpt: Male C57Bl6J mice, 6-8 weeks old, were anesthetized with 3% isoflurane and anaesthesia was maintained on 1.5-2% isoflurane. A Doppler flowmetry probe (Perimed, Sweden) was attached to the skull to continuously monitor the cerebral blood flow. Left common carotid artery (CCA) and left external carotid artery were exposed and permanently ligated. Left […] was clamped temporarily. Next, an incision was made on CCA and a filament with a silicon tip (0.22 mm in diameter, 2-3 mm in length, Doccol, USA) was inserted and guided forward into internal carotid artery until it reached middle cerebral artery (MCA). The occlusion of MCA was confirmed by seeing at least 70% drop in cerebral blood flow. […]
At the end of reperfusion, mice were sacrificed by cervical dislocation; brain was collected and sliced at 2 mm thicknesses and stained with 2% triphenyltetrazolium chloride in saline at 37 C for 10-15 min. […] The healthy tissue area (red-stained) in both hemispheres was measured using ImageJ. The infarct volume % was calculated by first calculating the volume of healthy tissue in each hemisphere (Σarea of each slice×thickness of slice), then by the formula: ((volume of healthy tissue in uninjured hemisphere −volume of healthy tissue in injured hemisphere) ÷volume of healthy tissue in uninjured hemisphere)×100. […]

Data set [2] can be described thus: Malonate uptake in vivo (tissue levels after tail vein bolus, LC-MS/MS). The arrangement: species or system C57/BL6 mice. To be noted: 160 mg/kg tail vein bolus, 5 min after injection, normoxic mouse. The protocol: To see if this uptake also occurred in vivo, we injected disodium malonate into a normoxic mouse by a bolus in the tail vein and measured the malonate levels in tissues 5 min later. C57/BL6 mice were tail vein injected with DSM (160 mg/kg) before cervical dislocation 5 min after the injection, tissues harvested and clamp frozen in liquid nitrogen. For tissue analysis, tissues were weighed and extracted in 25 μl/mg extraction buffer containing internal standard and homogenised in a Precellys 24 homogeniser. Homogenates were centrifuged to remove insoluble debris. Extracts were analysed by LC-MS/MS and the levels of malonate assessed by interpolation of a malonate standard curve.

Data set [3] relates to C2Cl2 mouse myoblast cells. The data set can be described thus: Malonate uptake in vitro (LC-MS of cell extracts). The data set is classed as in vitro ADME. To be noted: for malonate concentration within the cell: allowing for a cell volume of 260 mg protein/ml. The protocol: We first explored whether malonate could be taken up by cells in culture. C2Cl2 mouse myoblast cells were plated at 300,000 cells/well and adhered overnight. The next day, cells were treated with either DSM (a—0.25 mM; b—0.25, 1 or 5 mM) or untreated for 0 to 240 min before cooling plates on ice and rapidly washing 4 times with ice-cold PBS and placed on dry ice. Cells were extracted for mass spectrometry with 500 μl extraction buffer (50% methanol, 30% acetonitrile and 20% water) with 1 nmol ^13C-malonate internal standard centrifuged to remove insoluble debris.

Data on two compounds can be found in patent US20220409562A1, “Treatment or Prevention of Ischaemic Stroke Reperfusion Injury” (Cambridge Enterprise Limited, priority 2019, published 2022).

Entries after “also recorded” stand apart in the source; their conditions may differ.

Regarding `COC(=O)CC(=O)OC` [DMM, dimethyl malonate], the protective effect entry in the data set with ischemia was “protective”. Further, the “necrotic brain infarct volume” value in data set [1] was “no significant difference; also recorded: not effective”.

`O=C([O-])CC(=O)[O-].[Na+].[Na+]` [DSM, disodium malonate]: in data set [2], the “tissue levels of malonate, brain” value is on record as “uptake”; the “tissue levels of malonate, heart” value is listed as “significant amounts”; the “tissue levels of malonate, kidney” value is on record as “particularly high”; the “tissue levels of malonate, liver” value is recorded as “significant amounts”. The compound also returned an intracellular malonate levels in data set [3] (5 mM DSM, after 5 min (FIG. 4b)) of about 2 nmol/mg protein. For the same compound, the “malonate uptake into cells” value in data set [3] (0.25, 1 or 5 mM, 0 to 240 min (FIG. 4b)) is “both dose and time-dependent”. In data set [3] (after 5 min incubated with 250 μM), the “malonate concentration within the cell” value is on record as “about 50”. For the same compound, the “malonate concentration within the cell” value in data set [3] (after 5 min incubated with 5 mM) was about 500. Besides, the intracellular malonate levels in data set [3] (incubated with 250 μM disodium malonate (FIG. 4a)) was 0.2-0.4 nmol/mg protein. Also, the “necrotic brain infarct volume” value in data set [1] is “decreased”.
